# Measured values reported in patent publication US12186302B2, “Dipeptidyl peptidase-IV inhibitor and food with function claims” (TOYOTA JIDOSHA KABUSHIKI KAISHA, priority 2020, dated 2025).
# What was measured:
# DPP-IV [1] = biological target: T1, DPP-IV (Homo sapiens, UniProt P27487); details: background art, JP Patent Publication (Kokai) No. 2018-118939 A; cited from earlier work
# DPP-IV [2] = biological target: T1, DPP-IV; experiment: DPP (IV) Inhibitor Screening Assay Kit (Cayman Chemical), fluorescence; type: biochemical; details: for DPP-IV inhibitory activity (inhibition rate, FIG. 1): comparison of various catechins, 37° C., 30 minutes
# From the text: In this Example, various catechins including a methylated catechin were used to examine their DPP-IV inhibitory activity. Regarding the DPP-IV inhibitory activity, a commercially available DPP (IV) Inhibitor Screening Assay Kit (manufactured by Cayman Chemical) was used. Catechins tested in this Example were epicatechin-3-O-gallate (ECG), epicatechin (EC), epigallocatechin(EGC), (−)-epigallocatechin gallate (EGCG), and (−)-epigallocatechin 3-(3″-O-methyl)gallate (EGCG3″Me). These catechins were purchased from Nagara Science Co., Ltd. In addition, caffeine was purchased from Sigma-Aldrich, and L-theanine was purchased from FUJIFILM Wako Pure Chemical Corporation for testing.
# In the experiment, first, a sample (5 μL), buffer (15 μL), DPP-IV (5 μL), and a substrate (25 μL) were added to a 96-well plate and incubated at 37° C. for 30 minutes. Then, the fluorescence intensity was measured by using a fluorometer (Envision 2104 Multilaber Reader, manufactured by Perkin Elmer) (excitation wavelength: 355 nm; fluorescence wavelength: 450 nm).
# Next, the fluorescence intensity measured with the addition of ultrapure water (5 μL), buffer (20 μL), and a substrate (25 μL) was subtracted as a background from the fluorescence intensity of each sample. The fluorescence intensity measured with the addition of ultrapure water (5 μL), buffer (15 μL), DPP-IV (5 μL), and a substrate (25 μL) was defined as 100% initial activity.
# The inhibition rate was calculated by subtracting the fluorescence intensity of the sample from the fluorescence intensity of 100% initial activity, then dividing the difference by the fluorescence intensity of 100% initial activity, and finally multiplying the quotient by 100. As a positive control, sitagliptin included in the kit was used.
# Specifically, in the experiment described above, the concentration of EGCG3″Me was set to 1 μM, 5 μM, 10 μM, 50 μM, 100 μM or 200 μM, and the DPP-IV inhibitory activity was measured using the DPP (IV) Inhibitor Screening Assay Kit.
# T1 sequence (P27487 whole entry): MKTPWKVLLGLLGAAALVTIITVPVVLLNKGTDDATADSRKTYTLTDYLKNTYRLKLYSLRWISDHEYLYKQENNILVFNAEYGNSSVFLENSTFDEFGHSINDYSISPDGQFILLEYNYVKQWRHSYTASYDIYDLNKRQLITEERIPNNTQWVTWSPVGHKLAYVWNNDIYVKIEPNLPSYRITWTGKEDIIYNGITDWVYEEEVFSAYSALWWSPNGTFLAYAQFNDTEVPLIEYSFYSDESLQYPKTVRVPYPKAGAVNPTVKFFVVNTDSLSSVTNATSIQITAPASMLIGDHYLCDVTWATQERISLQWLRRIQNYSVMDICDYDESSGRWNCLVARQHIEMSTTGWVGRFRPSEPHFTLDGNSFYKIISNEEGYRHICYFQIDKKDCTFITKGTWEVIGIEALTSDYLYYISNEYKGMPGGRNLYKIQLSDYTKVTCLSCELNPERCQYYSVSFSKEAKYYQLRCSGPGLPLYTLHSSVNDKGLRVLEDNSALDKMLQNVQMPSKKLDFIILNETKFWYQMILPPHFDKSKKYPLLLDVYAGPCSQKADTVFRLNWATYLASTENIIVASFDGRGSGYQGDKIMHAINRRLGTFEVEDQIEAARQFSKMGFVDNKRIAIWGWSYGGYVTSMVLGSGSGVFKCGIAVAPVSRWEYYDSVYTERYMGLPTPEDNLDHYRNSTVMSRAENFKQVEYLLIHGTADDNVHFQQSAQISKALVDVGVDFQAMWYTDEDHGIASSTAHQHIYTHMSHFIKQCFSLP
Compound,DPP-IV inhibitory effect (DPP-IV [1]),"DPP-IV inhibitory activity (inhibition rate, FIG. 1) (DPP-IV [2])","relationship between concentration and DPP-IV inhibitory activity (FIG. 2) (DPP-IV [2]; 1 μM, 5 μM, 10 μM, 50 μM, 100 μM or 200 μM)",DPP-IV inhibitory activity (FIG. 2) (DPP-IV [2]; when concentration exceeds 50 μM)
"O=C(O[C@@H]1Cc2c(O)cc(O)cc2O[C@@H]1c1ccc(O)c(O)c1)c1cc(O)c(O)c(O)c1 [ECg, epicatechin gallate]",have the DPP-IV inhibitory effect,–,–,–
"Oc1cc(O)c2c(c1)O[C@H](c1cc(O)c(O)c(O)c1)[C@H](O)C2 [EGC, epigallocatechin]",have the DPP-IV inhibitory effect,–,–,–
"Oc1cc(O)c2c(c1)O[C@H](c1cc(O)c(O)c(O)c1)[C@@H](O)C2 [GC, gallocatechin]",have the DPP-IV inhibitory effect,–,–,–
"O=C(O[C@@H]1Cc2c(O)cc(O)cc2O[C@H]1c1cc(O)c(O)c(O)c1)c1cc(O)c(O)c(O)c1 [GCg, gallocatechin gallate]",have the DPP-IV inhibitory effect,–,–,–
(−)-epigallocatechin gallate [EGCG],have the DPP-IV inhibitory effect,excellent DPP-IV inhibitory activity,–,–
catechin gallate [Cg],have the DPP-IV inhibitory effect,–,–,–
epigallocatechin-3-O-(3-O-methyl)gallate [EGCG3″Me],–,particularly excellent DPP-IV inhibitory activity,tends to increase as the concentration increases,extremely excellent DPP-IV inhibitory activity
